Assay results reported in the supplement of paper PMC10307832.

Experiments:
Assay in all cases: relative viability (nuclei count vs DMSO), 5 days (fraction); higher = more cells survive
FH535 = compound: CC1=C(C=CC(=C1)[N+](=O)[O-])NS(=O)(=O)C2=C(C=CC(=C2)Cl)Cl [FH535]
Outline: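 Vehicle-anchored 1536-well plates of lung cancer cell lines, held overnight at 37 °C, were pinned with five library-drug doses (not always all listed) spaced by √10. No medium change followed over the next 5 days, after which the cells were fixed, permeabilised and Hoechst-stained together and imaged at 4×. Nuclei were counted with MetaXpress, and viability is treated-well nuclei over vehicle-well nuclei, taken as a median across plates. Plates passed with control CV below 25% and at least one doubling.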

FH535 + Crizotinib = compound: CC1=C(C=CC(=C1)[N+](=O)[O-])NS(=O)(=O)C2=C(C=CC(=C2)Cl)Cl [FH535] + C[C@@H](Oc1cc(-c2cnn(C3CCNCC3)c2)cnc1N)c1c(Cl)ccc(F)c1Cl [Crizotinib] (partner 1 µM)
Outline: (§1)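 For relative viability, nuclei counts in treated wells were divided by those in vehicle wells. Lung cancer cell lines had been pin-tool dosed in 1536-well plates the day after seeding and cultured for 5 days, then fixed and stained in one step (final 0.05% Triton X-100, 1% formaldehyde, 1 ug/ml Hoechst) and imaged at 4×. Doses were one drug alone or a fixed anchor-drug dose plus five library-drug doses (not always all listed) in √10 steps, and values are duplicate-plate medians.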

FH535 + Alpelisib = compound: CC1=C(C=CC(=C1)[N+](=O)[O-])NS(=O)(=O)C2=C(C=CC(=C2)Cl)Cl [FH535] + Cc1nc(NC(=O)N2CCC[C@H]2C(N)=O)sc1-c1ccnc(C(C)(C)C(F)(F)F)c1 [Alpelisib] (partner 2 µM)
Outline: as §1

FH535 + Dasatinib = compound: CC1=C(C=CC(=C1)[N+](=O)[O-])NS(=O)(=O)C2=C(C=CC(=C2)Cl)Cl [FH535] + Cc1nc(Nc2ncc(C(=O)Nc3c(C)cccc3Cl)s2)cc(N2CCN(CCO)CC2)n1 [Dasatinib] (partner 0.075 µM)
Outline: as §1

FH535 + Olaparib = compound: CC1=C(C=CC(=C1)[N+](=O)[O-])NS(=O)(=O)C2=C(C=CC(=C2)Cl)Cl [FH535] + O=C(c1cc(Cc2n[nH]c(=O)c3ccccc23)ccc1F)N1CCN(C(=O)C2CC2)CC1 [Olaparib] (partner 8 µM)
Outline: as §1

Cell Line	relative viability (FH535; 0.04 µM)	relative viability (FH535; 0.1265 µM)	relative viability (FH535; 0.4 µM)	relative viability (FH535; 1.265 µM)	relative viability (FH535 + Crizotinib; first compound 0.04 µM)	relative viability (FH535 + Crizotinib; first compound 0.1265 µM)	relative viability (FH535 + Crizotinib; first compound 0.4 µM)	relative viability (FH535 + Crizotinib; first compound 1.265 µM)	relative viability (FH535 + Alpelisib; first compound 0.04 µM)	relative viability (FH535 + Alpelisib; first compound 0.1265 µM)	relative viability (FH535 + Alpelisib; first compound 0.4 µM)	relative viability (FH535 + Alpelisib; first compound 1.265 µM)	relative viability (FH535 + Dasatinib; first compound 0.04 µM)	relative viability (FH535 + Dasatinib; first compound 0.1265 µM)	relative viability (FH535 + Dasatinib; first compound 0.4 µM)	relative viability (FH535 + Dasatinib; first compound 1.265 µM)	relative viability (FH535 + Olaparib; first compound 0.04 µM)	relative viability (FH535 + Olaparib; first compound 0.1265 µM)	relative viability (FH535 + Olaparib; first compound 0.4 µM)	relative viability (FH535 + Olaparib; first compound 1.265 µM)
201T	0.976	1	0.884	0.862	0.99	1.09	0.975	0.875	1.02	1.01	1.02	1	0.555	0.568	0.437	0.442	0.812	0.856	0.827	0.59
A549	0.878	0.887	0.928	0.789	0.749	0.783	0.631	0.41	0.842	0.754	0.72	0.705	–	–	–	–	0.28	0.306	0.284	0.299
A-427	0.908	1.05	0.926	0.819	0.929	0.908	0.784	0.721	1.08	1.04	1.02	1.04	0.54	0.826	0.657	0.564	0.799	0.774	0.731	0.513
ABC-1	1	0.858	0.812	0.774	1.19	0.866	1.2	0.618	1.18	1.25	0.954	1.29	0.584	0.619	0.4	0.36	0.705	0.896	0.94	0.37
BEN	0.92	0.946	0.862	0.653	0.813	0.859	0.792	0.535	0.929	0.998	0.868	0.748	0.247	0.351	0.258	0.214	1.02	1.1	0.831	0.636
CAL-12T	0.989	0.977	0.819	0.591	0.817	0.691	0.719	0.556	1.21	1.16	1.06	1.01	0.361	0.417	0.291	0.235	0.693	0.813	0.612	0.411
COR-L23	0.98	1.03	0.842	0.573	0.626	0.656	0.57	0.434	0.799	0.718	0.681	0.499	0.447	0.437	0.38	0.222	0.375	0.35	0.309	0.244
COR-L 105	0.882	1.08	0.76	0.82	0.751	0.885	0.792	0.86	1.09	1.17	0.789	0.971	0.292	0.325	0.314	0.333	0.693	0.699	0.747	0.648
ChaGo-K-1	0.91	1.06	0.887	0.775	1.05	1.19	1.09	0.708	–	–	–	–	0.581	0.563	0.54	0.563	0.384	0.404	0.403	0.286
EKVX	0.987	0.951	0.905	0.773	0.824	1.07	0.998	0.609	0.825	0.976	0.823	0.75	0.336	0.705	0.511	0.243	0.737	0.906	0.903	0.762
EMC-BAC-2	0.808	0.953	0.913	0.839	0.766	0.799	0.739	0.677	0.731	0.762	0.716	0.632	0.302	0.358	0.317	0.319	0.445	0.467	0.46	0.442
EPLC-272H	0.838	0.934	0.796	0.774	0.943	1.07	0.868	0.838	0.951	0.978	1.02	0.963	0.283	0.318	0.311	0.281	0.766	0.92	0.849	0.636
H3255	0.953	0.945	0.955	0.745	0.896	0.806	0.853	0.705	0.468	0.805	0.705	0.633	0.341	0.473	0.408	0.346	0.515	0.527	0.514	0.381
HARA	0.855	0.876	0.779	0.711	1.06	1.08	0.929	0.52	0.785	0.817	0.817	0.561	0.358	0.194	0.205	0.182	0.588	0.873	0.829	0.353
HCC-15	0.928	0.998	0.841	0.786	0.798	0.819	0.747	0.52	0.864	0.819	0.85	0.646	0.552	0.632	0.505	0.49	0.702	0.706	0.688	0.519
HCC-44	0.994	0.943	0.836	0.747	0.908	0.755	0.75	0.682	0.779	0.843	0.741	0.566	–	–	–	–	0.976	0.929	0.969	0.768
HCC-78	0.927	1	0.951	0.865	0.3	0.373	0.342	0.311	0.345	0.396	0.361	0.302	0.33	0.514	0.342	0.427	0.695	0.764	0.885	0.673

Cell Line	relative viability (FH535; 0.04 µM)	relative viability (FH535; 0.1265 µM)	relative viability (FH535; 0.4 µM)	relative viability (FH535; 1.265 µM)	relative viability (FH535 + Crizotinib; first compound 0.04 µM)	relative viability (FH535 + Crizotinib; first compound 0.1265 µM)	relative viability (FH535 + Crizotinib; first compound 0.4 µM)	relative viability (FH535 + Crizotinib; first compound 1.265 µM)	relative viability (FH535 + Alpelisib; first compound 0.04 µM)	relative viability (FH535 + Alpelisib; first compound 0.1265 µM)	relative viability (FH535 + Alpelisib; first compound 0.4 µM)	relative viability (FH535 + Alpelisib; first compound 1.265 µM)	relative viability (FH535 + Dasatinib; first compound 0.04 µM)	relative viability (FH535 + Dasatinib; first compound 0.1265 µM)	relative viability (FH535 + Dasatinib; first compound 0.4 µM)	relative viability (FH535 + Dasatinib; first compound 1.265 µM)	relative viability (FH535 + Olaparib; first compound 0.04 µM)	relative viability (FH535 + Olaparib; first compound 0.1265 µM)	relative viability (FH535 + Olaparib; first compound 0.4 µM)	relative viability (FH535 + Olaparib; first compound 1.265 µM)
HCC-366	1	1.05	0.973	0.992	0.392	0.614	0.594	0.354	0.35	0.485	0.478	0.349	0.571	0.713	0.632	0.487	0.302	0.333	0.373	0.332
HCC-827	0.956	1.04	0.936	0.767	0.924	0.872	0.904	0.564	0.954	0.972	0.926	0.446	0.35	0.291	0.273	0.364	0.627	0.676	0.574	0.359
HOP-62	0.89	0.919	0.93	0.853	0.953	1.01	0.69	0.988	0.931	0.948	0.778	0.694	0.604	0.571	0.533	0.57	0.278	0.36	0.4	0.453
IA-LM	0.963	0.864	0.868	0.713	0.867	0.771	0.645	0.633	0.827	0.691	0.642	0.688	–	–	–	–	0.768	0.732	0.712	0.503
LC-2-ad	0.894	0.936	0.857	0.71	0.462	0.477	0.458	0.452	0.489	0.963	0.898	0.618	0.417	0.571	0.437	0.409	0.74	0.703	0.713	0.526
LCLC-97TM1	0.809	0.913	0.844	0.913	–	0.583	0.322	0.296	–	0.225	0.224	0.181	0.726	0.797	0.811	0.77	0.407	0.342	0.314	0.274
LCLC-103H	0.919	1.03	0.901	0.753	1.04	1.11	1.02	0.844	0.906	0.935	1.01	0.927	0.441	0.369	0.353	0.384	0.757	0.774	0.75	0.474
LK-2	0.919	0.983	0.996	1.17	0.224	0.236	0.252	0.226	0.915	1.06	1.09	1.01	0.308	0.248	0.294	0.327	0.579	0.615	0.942	0.735
LOU-NH91	0.936	1.07	0.742	0.472	0.622	0.721	0.698	0.477	0.714	0.793	0.679	0.409	0.573	0.613	0.388	0.267	0.876	0.905	0.793	0.421
LU99A	0.812	0.973	0.854	0.811	0.508	0.598	0.604	0.584	0.457	0.498	0.534	0.522	0.435	0.439	0.468	0.507	0.246	0.28	0.274	0.283
LXF-289	0.99	0.989	0.913	0.851	0.795	0.832	0.74	0.567	0.958	0.98	0.91	0.794	0.205	0.262	0.225	0.212	0.916	1.06	1.03	0.587
NCI-H522	0.875	0.894	0.856	0.825	–	–	–	–	–	–	–	–	0.882	0.862	0.827	0.979	0.686	0.717	0.632	0.467
NCI-H1395	0.683	0.929	0.909	0.62	–	–	–	–	0.847	1.09	1.1	0.84	0.361	0.402	0.413	0.344	0.491	0.46	0.437	0.414
NCI-H1650	0.893	0.966	0.881	0.717	1.01	1.09	1.15	0.839	–	–	–	–	0.281	0.299	0.3	0.297	0.841	0.741	0.698	0.641
NCI-H1793	0.825	0.747	0.762	0.642	–	–	–	–	0.597	0.721	0.618	0.541	0.321	0.342	0.296	0.339	0.801	0.94	0.826	0.454
SW 900	0.962	0.754	0.789	0.743	–	–	–	–	–	–	–	–	0.481	0.748	0.507	0.63	0.923	0.838	0.804	0.657
